Laboratory results: patent publication US9497963B2, “Methods and compositions for control of gypsy moth, Lymantria dispar” (Simon Fraser University, priority 2008, dated 2016)
Entries after “also recorded” stand apart in the source; their conditions may differ.

Key:
male gypsy moth antenna = test: Coupled gas chromatographic-electroantennographic detection (GC-EAD); set-up: species or system Lymantria dispar; conditions: EAD peak size and shape (sharp/broad)
Summary of the method: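 GC column effluent split between flame ionization detector and an excised male moth antenna held between saline-filled glass capillary electrodes, tip removed, in a warm air stream. Antennal potentials assigned to compounds by matching retention times with FID peaks.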

[1] = tested on: male gypsy moth antenna response to pheromone (+)-1; test: EAG short-term (STI) and long-term (LTI) inhibition of pheromone signaling (Example 5); set-up: species or system Lymantria dispar; conditions: for Activity (%): long-term inhibition (LTI): pure (+)-1 100 ng plume following mixed plume with 100 μg compound
Summary of the method: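 Excised male gypsy moth antenna in saline pH 6.8 under purified air (300 mL/min); 0.3 s puffs: air, (+)-1 100 ng, (+)-1 plus compound 1, 10, 100 μg per cartridge, then (+)-1 alone. STI: mixed-puff air-corrected depolarization loss versus first pheromone puff; LTI: final pheromone-puff loss.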

[2] = tested on: third instar gypsy moth larvae; test: Feeding deterrence, oak leaf disc choice test (Example 13); format: in vivo, Lymantria dispar
Experimental: Gypsy moth larvae were tested at the Canadian Forest Service, for feeding deterrence. A selected set of compounds, based on the results with the electroantennogram testing and also based on feeding deterrence assay results with the cabbage looper, T. ni. The experiment was done with third instar larvae and oak leaf discs. Larvae were left to choose between a treated and a control disc for 17.5 hours. Measurements of leaf areas were used to calculate the amount of leaf consumed from control (C) and treated (T) leaves. Feeding deterrence was calculated using the following formula: ((C−T)/(C+T))*100, and expressed in percent, where C=area of control leaf consumed and T=area of treated leaf consumed.

[3] = tested on: male gypsy moth antenna response to odorants other than (+)-1; test: Long-term inhibition of responses to other pheromone and host plant odorants, EAG (Example 8, first objective); set-up: species or system Lymantria dispar; conditions: for long-term activity (%) / short-term activity (%): antagonist 100 μg
Experimental: To determine whether the long-term inhibitory effects of 3c{2,3} and DEET are specific to (+)-1 or also apply to other odorants, compound 3c{2,3} and DEET were tested further with other odorants: (−)-1, racemic 1, dispar alkene, methyl eugenol and 1-hexanol.
These included (−)-1, racemic 1, dispar alkene (the alkene corresponding to the carbon framework of 1), methyl eugenol (a characteristic oak wood odorant) and 1-hexanol (a green leaf volatile, shown previously to be detected by gypsy moth antennae). For the pure odorant puffs, (−)-1 and racemic 1 were administered at 100 ng/cartridge, the alkene, methyl eugenol was administered at 1 μg/cartridge and 1-hexanol was administered at 100 μg/cartridge. The antagonists were both administered at 100 μg/cartridge, mixed with the appropriate dose of the odorant. The puff order was: i) air, ii) pure odorant, iii) odorant+antagonist, iv) pure odorant. All puffs were corrected for the air response as in Eq. 1. STI values were obtained from the depolarization […]. LTI values were obtained by comparing the depolarization of puff iv relative to that of puff ii.

gypsy moths = test: Field test of trap catches, Northern Japan 2009 (Example 12); format: in vivo, Lymantria dispar; conditions: (+)-dis 40 μg/lure & compound 40 mg/lure, vs (+)-dis alone
Experimental: Ten traps were used per treatment. The solvent used to deliver the compounds onto the lures was doubly distilled hexane. The hexane was evaporated prior to packing and shipping the lures. The field test was conducted in 10 replicates in Northern Japan. The test was conducted Aug. 16-18, 2009, in an area where gypsy moths are known to live. […] Traps were arranged randomized, placed on platforms. The experiment was conducted blind. The lures contained 40 μg disparlure/lure, a low dose for a field trial (typically 100 μg-1 mg are used). For each treatment, 10 traps were deployed.

L. dispar PBP 1 = test: Pheromone-binding protein (PBP) ligand binding assay, PBP1; set-up: species or system Lymantria dispar; conditions: tested as single compound; means ± S.E., 4 replicates
Experimental: (§1) A. The protein and ligand are incubated in buffer overnight. B. For half of the incubation mixture, the free ligand (L) is separated from the protein-bound ligand (P.L) by size-exclusion chromatography on P2 Gel (BioRad, exclusion limit 2000 Da). The protein elutes from the small column bed, with its ligand bound (see Examples and […] et al. 2000; Staddon and Everton 1980), while the free ligand is retained on the column ([…] et al. 2000). C. […] The extract from the filtrate (B) contains the protein-bound ligand and the extract from the incubation mixture (A) contains all the ligand (bound and free) present in the aqueous phase. The extracts are analyzed by GC-MS, to obtain values for total ligand in solution (L+P.L) and for protein-bound ligand (P.L). These can then be used to calculate % bound (Table 3). These assays were performed as described in FIG. 3 and as follows: L. dispar PBP 1 or PBP 2 was incubated with the test compound or mini-library. The PBP and the ligand(s) (L) were left to equilibrate (eq 2) overnight. The non-bound ligand was then separated from the protein-bound material (PBP.L) by size-exclusion chromatography. By determining the total ligand in solution at equilibrium (eq. 3) and the protein-bound ligand, it is possible to estimate the percentage of ligand bound to the protein at equilibrium (eq. 4). […] This binding assay has been validated extensively in previous studies ([…] et al. 2000). The components of each mini-library separated cleanly by GC, so it was possible to monitor binding of individual components. PBP+L⇄PBP·L (eq. 2) [L]tot=[L]+[PBP·L] (eq. 3) % bound=100×[PBP·L]/[L]tot (eq. 4) Results: The members of each mini-library separated cleanly by GC, therefore it was possible to monitor binding of individual members to PBP1 or PBP2, the two known PBPs in the gypsy moth, by extraction from the aqueous incubation mixture, followed by GC analysis of the extract (FIG. 3).

L. dispar PBP 2 = test: Pheromone-binding protein (PBP) ligand binding assay, PBP2; set-up: species or system Lymantria dispar; conditions: tested as single compound; means ± S.E., 4 replicates
Experimental: as §1

[4] = tested on: male gypsy moth antenna response to pheromone (+)-1; test: Decay of the long-term inhibitory effect and dose responses, EAG (Example 6); set-up: species or system Lymantria dispar; conditions: 100 ng; maximal value, on average
Experimental: LTI dependence on the delay time of the pure (+)-1 puffs (v-vii, Example 6) after the mixed (+)-1/inhibitor puff. The amount of (+)-1 was varied from 10 ng to 1 μg and the amount of inhibitor was constant at 100 μg. FIG. 7B. Dose response of LTI with respect to variable (+)-1 responses and time responses for the strongest long-term inhibition of EAG responses towards (+)-1. FIG. 7C. Dose response of pure pheromone (+)-1. FIG. 7D.
This recovery usually took 5-7 s. The short-term inhibition STI(compound, dose) was calculated for each mixed plume. The long-term inhibition LTI(dose, time) was calculated for each dose and for each of the three puffs following the mixed pheromone-inhibitor plume.

[5] = tested on: male gypsy moth antennae response to pheromone (+)-1 with plant odors; test: Effect on mixed pheromone/plant odorant stimulus, EAG (Example 8, second objective); set-up: species or system Lymantria dispar
Experimental: A second objective for this experiment was to determine whether the oak volatiles, methyl eugenol and 1-hexanol, can enhance the antennal response to (+)-1 and whether the mixed pheromone/plant odorant stimulus can be inhibited by compound 3c{2,3} or DEET. The puff order was: i) air, ii) pure (+)-1 (100 ng), iii) (+)-1 (100 ng) and plant odorant (1 μg for methyl eugenol and 100 μg for 1-hexanol), iv) (+)-1 and plant odorant as in iii+antagonist (100 μg), v) same as in iii. Depolarizations were corrected for the air response as in Eq. 1 and the short-term effects were calculated for puff iii relative to puff ii, and for puff iv relative to puff ii. Long-term effects were calculated for puff v relative to puff iii (for LTI of the mixed pheromone/plant odorant plume) and for puff v relative to puff ii (to determine whether long-term effects of the plant odorant and of the antagonist cancel).

[6] = mixed plume (+)-1 100 ng + compound 1 μg, negative = enhancement, mean ± S.E.
[7] = mixed plume (+)-1 100 ng + compound 10 μg, negative = enhancement, mean ± S.E.
[8] = mixed plume (+)-1 100 ng + compound 100 μg (puff v), negative = enhancement, mean ± S.E.
[9] = third instar larvae, oak leaf discs, choice between treated and control disc for 17.5 hours, ((C−T)/(C+T))*100
[10] = odorant racemic disparlure 100 ng
[11] = plant synergist 1-hexanol 100 μg
[12] = plant synergist methyl eugenol 1 μg

**Q.** What does the source list for `C=CCc1ccc(OCCC)c(OC)c1` [Pr eugenol]?
**A.** GC-EAD activity (male gypsy moth antenna): None; Activity (%): short-term inhibition (STI) [1, 6]: 18 ± 37 (6) %; Activity (%): short-term inhibition (STI) [1, 7]: 39 ± 23 (6) %; Activity (%): short-term inhibition (STI) [1, 8]: −79 ± 25 (6) %; Activity (%): long-term inhibition (LTI) ([1]; mean ± S.E.): 7 ± 6 (6) %; Feeding Deterrence (%) [2, 9]: 52.67%

**Q.** Which GC-EAD activity (male gypsy moth antenna) does the source give for `C=CCc1ccc(OC)c(OC)c1` [Me eugenol] here?
**A.** None

**Q.** What about the inhibition at 100 µg, 0.1 mg ([1]; Lymantria dispar, read-out: Activity (%): long-term inhibition (LTI), pure (+)-1 100 ng plume following mixed plume with 100 μg compound, mean ± S.E.) of the same compound?
**A.** 8 ± 11%

**Q.** What about the inhibition at 0.001 mg ([1]; Lymantria dispar, read-out: Activity (%): short-term inhibition (STI), mixed plume (+)-1 100 ng + compound 1 μg, negative = enhancement, mean ± S.E.) of the same compound?
**A.** -1 ± 13%

**Q.** What about the inhibition at 0.01 mg ([1]; Lymantria dispar, read-out: Activity (%): short-term inhibition (STI), mixed plume (+)-1 100 ng + compound 10 μg, negative = enhancement, mean ± S.E.) of the same compound?
**A.** 76 ± 7%

**Q.** What about the inhibition at 0.1 mg ([1]; Lymantria dispar, read-out: Activity (%): short-term inhibition (STI), mixed plume (+)-1 100 ng + compound 100 μg (puff v), negative = enhancement, mean ± S.E.) of the same compound?
**A.** -152 ± 30%

**Q.** What about the “EAG response to the pure odorant (in words)” value [3] of the same compound?
**A.** same responses than clean air

**Q.** What about the “trap catches in the field” value (gypsy moths) of the same compound?
**A.** enhanced the trap catches significantly

**Q.** What about the “Feeding Deterrence (%)” value ([2]; foliar, 17.5 h) of the same compound?
**A.** 81.15%

**Q.** How did the “PBP1 (% bound)” value (L. dispar PBP 1) turn out when `CCCCCCCCCC[C@@H]1O[C@@H]1CCCCC(C)C` (relative stereo) [(+)-disparlure, cis-(7R,8S)-7,8-epoxy-2-methyloctadecane, reference compound] was run?
**A.** 54 ± 16%

**Q.** What about the “PBP2 (% bound)” value (L. dispar PBP 2) of the same compound?
**A.** 71 ± 23%

**Q.** What about the “depolarization with pure pheromone” value [4] of the same compound?
**A.** 20 mV

**Q.** How did the “long-term inhibition (LTI) activity (in words)” value [1] turn out when `CCN(CC)C(=O)c1cccc(C)c1` [DEET, reference compound] was run?
**A.** strongest long-term inhibitors; also recorded: strong LTI activity

**Q.** What about the “Activity (%): short-term inhibition (STI)” value [1, 6] of the same compound?
**A.** −165 ± 51 (5) %

**Q.** And the “Activity (%): short-term inhibition (STI)” value [1, 7]?
**A.** −214 ± 48 (5) %

**Q.** And the “Activity (%): short-term inhibition (STI)” value [1, 8]?
**A.** −203±42%

**Q.** What about the “inhibition of the recovery phase (RI, R^1 activity)” value ([1]; mixed puff with highest dose (puff v)) of the same compound?
**A.** 9±9%

**Q.** What about the “Activity (%): long-term inhibition (LTI)” value ([1]; mean ± S.E.) of the same compound?
**A.** 78 ± 6 (5) %

**Q.** What about the “long-term activity (%)” value ([3]; odorant 1-hexanol 100 μg) of the same compound?
**A.** 7 ± 18%

**Q.** And the “short-term activity (%)” value ([3]; odorant 1-hexanol 100 μg)?
**A.** 6 ± 30%

**Q.** What about the “long-term activity (%)” value ([3]; odorant (−)-disparlure 100 ng) of the same compound?
**A.** −10 ± 29%

**Q.** And the “short-term activity (%)” value ([3]; odorant (−)-disparlure 100 ng, negative = enhancement)?
**A.** −322 ± 66%

**Q.** And the “long-term activity (%)” value ([3]; odorant dispar alkene 1 μg)?
**A.** 52 ± 22%

**Q.** And the “long-term activity (%)” value ([3]; odorant methyl eugenol 1 μg)?
**A.** 8 ± 8%

**Q.** What about the “long-term activity (%)” value [3, 10] of the same compound?
**A.** −126 ± 133%

**Q.** What about the “short-term activity (%)” value [3, 10] of the same compound?
**A.** −468 ± 231%

**Q.** What about the “short-term effect with plant synergist + antagonist” value ([5]; (+)-1 100 ng + 1-hexanol 100 μg + antagonist 100 μg) of the same compound?
**A.** −339 ± 206 (5)

**Q.** What about the “short-term effect with plant synergist + antagonist” value ([5]; (+)-1 100 ng + methyl eugenol 1 μg + antagonist 100 μg) of the same compound?
**A.** −210 ± 120 (5)

**Q.** What about the “long-term effect on (+)-1 response” value [5, 11] of the same compound?
**A.** −53 ± 48 (5)

**Q.** And the “long-term effect on the mixed (+)-1/plant odor plumes” value [5, 11]?
**A.** −24 ± 19 (5)

**Q.** What about the “long-term effect on (+)-1 response” value [5, 12] of the same compound?
**A.** 27 ± 29 (5)

**Q.** What about the “long-term effect on the mixed (+)-1/plant odor plumes” value [5, 12] of the same compound?
**A.** 30 ± 27 (5)

**Q.** What about the “trap catches in the field” value (gypsy moths) of the same compound?
**A.** enhanced the trap catches significantly

**Q.** And the “Feeding Deterrence (%)” value [2, 9]?
**A.** 47.76%
